Values after ≈ are worked out from the molar mass of the structure shown. Read-outs that look alike come from different tables or passages of the source.
Tests used:
[1] = tested on: Gp Ia: S. aureus Smith A9537, A9497, Terajima, A9534, A9601; details: Staphylococcus aureus, read-out: Minimum Inhibitory Concentration Gp Ia, Mueller-Hinton agar, average of five organisms
in vivo = details: mouse; for half-life: T1/2
[2] = tested on: Gp Ib: S. aureus 193, BX-1633-2 A9606, A15092, Russell, A9602; details: Staphylococcus aureus
S. aureus Smith = assay: Protective dose, mice infected with lethal inoculum, oral treatment, S. aureus Smith; type: in vivo; details: Staphylococcus aureus, po, 120 h, read-out: Protective dose (PD50), S. aureus Smith
E. coli Juhl = assay: Protective dose, mice infected with lethal inoculum, oral treatment, E. coli Juhl; type: in vivo; details: Escherichia coli, po, 120 h, read-out: Protective dose (PD50), E. coli Juhl
H. influenzae = assay: In vitro activity against Haemophilis (MIC), H. influenzae; type: cell-based; details: Haemophilus influenzae, Compound 9 lot 2
S. pyogenes = assay: In vitro activity against Streptococci (MIC), S. pyogenes; type: cell-based; details: Streptococcus pyogenes, Compound 9 lot 2
N. meningitidis = assay: In vitro activity against Neisseria (MIC), N. meningitidis; type: cell-based
N. gonorrheae = assay: In vitro activity against Neisseria (MIC), N. gonorrheae; type: cell-based
S. pneumoniae = assay: In vitro activity against Streptococci (MIC), S. pneumoniae; type: cell-based; details: Streptococcus pneumoniae, Compound 9 lot 2
[3] = mouse, in vivo, po
[4] = read-out: Minimum Inhibitory Concentration Gp Ib, Mueller-Hinton agar, run 1, average of five organisms
[5] = oral, 50% survival for 5 days, groups of 5 mice

Compound: CC/C=C\C1=C(C(=O)[O-])N2C(=O)[C@@H](NC(=O)[C@H](N)c3ccc(O)cc3)[C@H]2SC1.[Na+]
- MIC ([1]; run 1): 0.4 µg/mL
- AUC (in vivo; im, 20 mg/kg, AUC*, Run 1, * mean of 3 runs): 20000 ng·h/mL
- Cmax (in vivo; im, 20 mg/kg): 25000 ng/mL
- half-life (in vivo; im, 20 mg/kg): 0.74 h
- AUC (in vivo; po, 20 mg/kg, AUC*, Run 1, * mean of 3 runs): 41000 ng·h/mL
- Cmax (in vivo; po, 20 mg/kg): 13000 ng/mL
- half-life (in vivo; po, 20 mg/kg): 2 h
- AUC (in vivo; po, 100 mg/kg, AUC): 150000 ng·h/mL
- Cmax (in vivo; po, 100 mg/kg): 51000 ng/mL
- half-life (in vivo; po, 100 mg/kg): 1.9 h
- MIC ([2]; read-out: Minimum Inhibitory Concentration Gp Ib): 1.4 µg/mL
- ED50 (S. aureus Smith): 0.32 mg/kg
- ED50 (E. coli Juhl): 3 mg/kg

Compound: C/C=C/C1=C(C(=O)O)N2C(=O)[C@@H](NC(=O)[C@H](N)c3ccc(O)cc3)[C@H]2SC1 [Compound 8, 7β-[D-2-Amino-2-(p-hydroxyphenyl)acetamido]-3-[(E)-1-propen-1-yl]-3-cephem-4-carboxylic Acid]
- MIC ([1]; run 1): 0.26 µg/mL (≈ 0.668 µM)
- AUC (in vivo; im, 20 mg/kg, AUC*): 31000 ng·h/mL
- Cmax (in vivo; im, 20 mg/kg): 31000 ng/mL
- half-life (in vivo; im, 20 mg/kg): 0.63 h
- AUC (in vivo; po, 20 mg/kg, AUC*): 22000 ng·h/mL
- Cmax (in vivo; po, 20 mg/kg): 10000 ng/mL
- half-life (in vivo; po, 20 mg/kg): 1.3 h
- AUC (in vivo; po, 100 mg/kg, AUC): 69000 ng·h/mL
- Cmax (in vivo; po, 100 mg/kg): 30000 ng/mL
- half-life (in vivo; po, 100 mg/kg): 1.4 h
- MIC [2, 4]: 1.4 µg/mL (≈ 3.59 µM)
- ED50 (S. aureus Smith; [5]): 0.2 mg/kg
- ED50 (E. coli Juhl; [5]): 7.5 mg/kg

Compound: C=CC1=C(C(=O)O)N2C(=O)[C@@H](NC(=O)[C@H](N)c3ccc(O)cc3)[C@H]2SC1 [Compound 11]
- MIC ([1]; run 1): 0.4 µg/mL (≈ 1.07 µM)
- AUC (in vivo; im, 20 mg/kg, AUC*): 15000 ng·h/mL
- Cmax (in vivo; im, 20 mg/kg): 23000 ng/mL
- half-life (in vivo; im, 20 mg/kg): 0.37 h
- AUC (in vivo; po, 20 mg/kg, AUC*): 13000 ng·h/mL
- Cmax (in vivo; po, 20 mg/kg): 11000 ng/mL
- half-life (in vivo; po, 20 mg/kg): 1.4 h
- AUC (in vivo; po, 100 mg/kg, AUC): 49000 ng·h/mL
- Cmax (in vivo; po, 100 mg/kg): 43000 ng/mL
- half-life (in vivo; po, 100 mg/kg): 1.2 h
- MIC [2, 4]: 1.2 µg/mL (≈ 3.2 µM)
- ED50 (S. aureus Smith; [5]): 0.18 mg/kg
- ED50 (E. coli Juhl; [5]): 3.8 mg/kg

Compound: N[C@@H](C(=O)N[C@@H]1C(=O)N2C(C(=O)O)=C(/C=C\Cc3ccccc3)CS[C@H]12)c1ccc(O)cc1 [Compound 15, 7β-[D-2-Amino-2-(p-hydroxyphenyl)acetamido]-3-[(Z)-3-phenyl-1-propen-1-yl]-3-cephem-4-carboxylic acid]
- MIC ([1]; run 1): 0.2 µg/mL (≈ 0.43 µM)
- MIC (H. influenzae; H. influenzae A9729, read-out: MIC): > 100 µg/mL
- MIC (H. influenzae; H. influenzae A9833, read-out: MIC): > 100 µg/mL
- MIC (H. influenzae; H. influenzae A20177, read-out: MIC): > 100 µg/mL
- MIC (H. influenzae; H. influenzae A20193, read-out: MIC): > 100 µg/mL
- MIC (H. influenzae; H. influenzae A21523, read-out: MIC): > 100 µg/mL
- MIC (H. influenzae; H. influenzae A22157, read-out: MIC): 25 µg/mL (≈ 53.7 µM)
- MIC (H. influenzae; H. influenzae A22481, read-out: MIC): 25 µg/mL (≈ 53.7 µM)
- MIC (H. influenzae; H. influenzae A22482, read-out: MIC): > 100 µg/mL
- MIC (H. influenzae; H. influenzae A22483, read-out: MIC): > 100 µg/mL
- MIC (H. influenzae; H. influenzae A22491, read-out: MIC): 25 µg/mL (≈ 53.7 µM)
- MIC (H. influenzae; H. influenzae, seven strains above, read-out: MIC, Geometric Mean): > 100 µg/mL
- MIC (S. pyogenes; S. pyogenes A9604, read-out: MIC): 0.2 µg/mL (≈ 0.43 µM)
- MIC (S. pyogenes; S. pyogenes A15040, read-out: MIC): 0.2 µg/mL (≈ 0.43 µM)
- MIC (S. pyogenes; S. pyogenes A20065, read-out: MIC): 0.2 µg/mL (≈ 0.43 µM)
- MIC (S. pyogenes; S. pyogenes A20201, read-out: MIC): 0.2 µg/mL (≈ 0.43 µM)
- MIC (S. pyogenes; S. pyogenes Dick, read-out: MIC): 0.2 µg/mL (≈ 0.43 µM)
- MIC (S. pyogenes; S. pyogenes S-23, Dick, A9604, A20065, A15040, read-out: MIC, Geometric Mean): 0.2 µg/mL (≈ 0.43 µM)
- MIC (S. pyogenes; S. pyogenes S-23, read-out: MIC): 0.2 µg/mL (≈ 0.43 µM)
- MIC (N. meningitidis; N. meningitidis A21487, Compound 9 lot 2): > 100 µg/mL
- MIC (N. meningitidis; N. meningitidis A21496, Compound 9 lot 2): > 100 µg/mL
- MIC (N. meningitidis; N. meningitidis A21497, Compound 9 lot 2): > 100 µg/mL
- MIC (N. meningitidis; Neisseria meningitidis, read-out: MIC): > 100 µg/mL
- MIC (N. meningitidis; Neisseria meningitidis, read-out: MIC, Geometric Mean): > 100 µg/mL
- AUC (in vivo; im, 20 mg/kg, AUC*): 52000 ng·h/mL
- Cmax (in vivo; im, 20 mg/kg): 31000 ng/mL
- half-life (in vivo; im, 20 mg/kg): 0.99 h
- AUC (in vivo; po, 20 mg/kg, AUC*): 38000 ng·h/mL
- Cmax (in vivo; po, 20 mg/kg): 12000 ng/mL
- half-life (in vivo; po, 20 mg/kg): 2.7 h
- AUC (in vivo; po, 100 mg/kg, AUC): 81000 ng·h/mL
- Cmax (in vivo; po, 100 mg/kg): 41000 ng/mL
- half-life (in vivo; po, 100 mg/kg): 2.7 h
- MIC [2, 4]: 0.7 µg/mL (≈ 1.5 µM)
- MIC (N. gonorrheae; N. gonorrheae A20142, Compound 9 lot 2): > 100 µg/mL
- MIC (N. gonorrheae; N. gonorrheae A20143, Compound 9 lot 2): > 100 µg/mL
- MIC (N. gonorrheae; N. gonorrheae A20154, Compound 9 lot 2): > 100 µg/mL
- MIC (N. gonorrheae; N. gonorrheae A20155, Compound 9 lot 2): > 100 µg/mL
- MIC (N. gonorrheae; read-out: MIC): > 100 µg/mL
- MIC (N. gonorrheae; read-out: MIC, Geometric Mean): > 100 µg/mL
- MIC (S. pneumoniae; S. pneumoniae A9585, read-out: MIC): 0.4 µg/mL (≈ 0.859 µM)
- MIC (S. pneumoniae; S. pneumoniae A15069, read-out: MIC): 0.2 µg/mL (≈ 0.43 µM)
- MIC (S. pneumoniae; S. pneumoniae A20759, read-out: MIC): 0.4 µg/mL (≈ 0.859 µM)
- MIC (S. pneumoniae; S. pneumoniae Type I, read-out: MIC): 0.2 µg/mL (≈ 0.43 µM)
- MIC (S. pneumoniae; S. pneumoniae Type II, I, III, A9585, A15069, read-out: MIC, Geometric Mean): 0.23 µg/mL (≈ 0.494 µM)
- MIC (S. pneumoniae; S. pneumoniae Type II, read-out: MIC): 0.2 µg/mL (≈ 0.43 µM)
- MIC (S. pneumoniae; S. pneumoniae Type III, read-out: MIC): 0.2 µg/mL (≈ 0.43 µM)

Compound: COC/C=C\C1=C(C(=O)O)N2C(=O)[C@@H](NC(=O)[C@H](N)c3ccc(O)cc3)[C@H]2SC1 [Compound 17, 7β-[D-2-Amino-2-(p-hydroxyphenyl)acetamido]-3-[(Z)-3-methoxy-1-propen-1-yl]-3-cephem-4-carboxylic Acid]
- MIC ([1]; run 1): 0.53 µg/mL (≈ 1.26 µM)
- AUC (in vivo; im, 20 mg/kg, AUC*): 19000 ng·h/mL
- Cmax (in vivo; im, 20 mg/kg): 24000 ng/mL
- half-life (in vivo; im, 20 mg/kg): 0.6 h
- AUC (in vivo; po, 20 mg/kg, AUC*): 28000 ng·h/mL
- Cmax (in vivo; po, 20 mg/kg): 18000 ng/mL
- half-life (in vivo; po, 20 mg/kg): 1.6 h
- AUC (in vivo; po, 100 mg/kg, AUC): 197000 ng·h/mL
- Cmax (in vivo; po, 100 mg/kg): 73000 ng/mL
- half-life (in vivo; po, 100 mg/kg): 1.7 h
- MIC [2, 4]: 2.1 µg/mL (≈ 5.01 µM)

Compound: N[C@@H](C(=O)N[C@@H]1C(=O)N2C(C(=O)O)=C(C=CCSc3cnn[nH]3)CS[C@H]12)c1ccc(O)cc1 [Compound 21, 7β-[D-2-Amino-2-(p-hydroxyphenyl)acetamido]-3-[3-(1H-1,2,3-triazol-5-yl)thio-1-propen-1-yl]-3-cephem-4-carboxylic Acid]
- MIC ([1]; run 1): 0.61 µg/mL (≈ 1.25 µM)
- oral absorption [3]: Uniformly good oral absorption is reflected except for Compound No. 21
- AUC (in vivo; im, 20 mg/kg, AUC*): 9600 ng·h/mL
- Cmax (in vivo; im, 20 mg/kg): 16000 ng/mL
- half-life (in vivo; im, 20 mg/kg): 0.54 h
- AUC (in vivo; po, 20 mg/kg, AUC*): 6600 ng·h/mL
- Cmax (in vivo; po, 20 mg/kg): 1700 ng/mL
- half-life (in vivo; po, 20 mg/kg): 2.6 h
- AUC (in vivo; po, 100 mg/kg, AUC): 19000 ng·h/mL
- Cmax (in vivo; po, 100 mg/kg): 4400 ng/mL
- half-life (in vivo; po, 100 mg/kg): 3.2 h
- MIC [2, 4]: 2.7 µg/mL (≈ 5.53 µM)

Compound: C/C=C\C1=C(C(=O)O)N2C(=O)[C@@H](NC(=O)[C@H](N)c3ccc(O)c(Cl)c3)[C@H]2SC1 [Compound 32, 7β-[D-2-Amino-2-(3-chloro-4-hydroxyphenyl)acetamido]-3-[(Z)-1-propen-1-yl]-3-cephem-4-carboxylic acid]
- MIC ([1]; run 2): 0.13 µg/mL (≈ 0.307 µM)
- AUC (in vivo; im, 20 mg/kg, AUC*): 13000 ng·h/mL
- Cmax (in vivo; im, 20 mg/kg): 21000 ng/mL
- half-life (in vivo; im, 20 mg/kg): 0.48 h
- AUC (in vivo; po, 20 mg/kg, AUC*): 13000 ng·h/mL
- Cmax (in vivo; po, 20 mg/kg): 7900 ng/mL
- half-life (in vivo; po, 20 mg/kg): 1.7 h
- AUC (in vivo; po, 100 mg/kg, AUC): 37000 ng·h/mL
- Cmax (in vivo; po, 100 mg/kg): 25000 ng/mL
- half-life (in vivo; po, 100 mg/kg): 1.7 h
- MIC ([2]; read-out: Minimum Inhibitory Concentration Gp Ib, Mueller-Hinton agar, run 2, average of five organisms): 0.53 µg/mL (≈ 1.25 µM)
- ED50 (S. aureus Smith; [5]): 0.17 mg/kg
- ED50 (E. coli Juhl; [5]): 3.04 mg/kg

From patent publication US4520022A, “Substituted vinyl cephalosporins” (priority 1983, dated 1985)
